Like-named read-outs stand apart in the source and are kept apart here.

From patent US20200339544A1 (JOINT STOCK COMPANY "BIOCAD", priority 2017, published 2020) come the findings set out here.

Data set [1] can be described thus: Permeability through monolayer of Caco-2 cells. Type of data set: in vitro ADME. As to conditions: human, Caco-2 monolayer; for Papp A→B at 2 h, 10 µM: pH 6.5 upper / pH 7.4 lower, 2 h at 37° C.; for efflux ratio at 2 h, 10 µM: Papp B-A/Papp A-B. From the text:
2) Assessment of permeability through monolayer of Caco-2 cells.
Assessment of permeability through the monolayer of Caco-2 cells allows to evaluate the ability of the candidate compounds to penetrate through biological membranes by active and passive transport.
Caco-2, the cells of the intestinal epithelium, had been cultured in transwell plate inserts with the filters (with pores of 0.4 μm, BD Falcon with High Density) for 21 days, and then the integrity of the monolayer were estimated with Lucifer Yellow (Sigma-Aldrich, USA) by standard protocol. When setting the A→B transfer (“intestinal lumen”—“blood stream” transfer), solutions of test substances were added in a buffer with pH 6.5 (HBSS, 10 mM HEPES, 15 mM glucose solution) with the concentration of 10 μM into the upper chamber; the lower chamber was filled with a buffer with pH 7.4 (HBSS, 10 mM HEPES, 15 mM Glucose, 1% BSA). When setting B→A transfer (“blood stream”—“intestinal lumen” transfer), the upper chamber was filled with the buffer with pH 6.5, and solutions of the test substances were added in the buffer with pH 7.4 at the concentration of 10 μM in the lower chamber. Propranolol was used as a control substance (as it has high permeability).
After incubating for 2 h at 37° C. under 5% CO2, the amounts of test substances were determined in the upper and lower chambers by HPLC using Agilent1200 chromatograph (Agilent, USA) with preliminary protein precipitation with acetonitrile. We used gradient elution (1 mL/min flow rate). We determined the areas of peaks corresponding to the compounds. On the basis of peak areas in the calibration standards we determined the concentration of compound in the initial solution and in the samples from the wells of the upper and lower chambers. Papp, permeability through the cell layer, was calculated using the following formula:
Papp=(C(t)*V)/(C(0)*t*Area), wherein
The value was calculated with the following formula:
efflux=Papp B-A/Papp A-B, wherein • Papp A-B—the volume of permeability in A→B test; • Papp B-A—he volume of permeability in B→A test.
A general note: Caco-2 cells form a polarised layer with tight junctions and transporters.

Data set [2] is described as follows: Chemical stability in human blood plasma. Type of data set: in vitro ADME. Particulars: pooled human blood plasma; 10 μm; 4 hours at 37° C.; substance amount remaining. An outline of the steps:
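Pooled plasma from ten healthy donors was spiked to 10 μM from a 10 mM DMSO stock and held 4 h at 37 °C. After acetonitrile protein precipitation, HPLC peak areas before and after incubation gave the percentage of compound remaining.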

Data set [3] relates to HepG2 cells. The data set can be described thus: General cytotoxicity on HepG2 cells. Type of data set: cell-based. Particulars: therapeutic index, CC50 HepG2 / IC50 H1975. An outline of the steps: (§1)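 HepG2 cells seeded at 2*10^4 cells per well and compounds added in DMEM with 2% FBS for 72 h at 37 °C. Viability read with Alamar Blue and CC50 derived as for IC50. Therapeutic index taken as HepG2 CC50 over H1975 IC50.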

Data set [4] in a line: General cytotoxicity on HepG2 cells. Particulars: human; general cytotoxicity, HepG2 cells, 72 hours, average of several tests. The data set is classed as cell-based. An outline of the steps: as §1
Data set [5] concerns H1975 (lung adenocarcinoma, DM, L828R/T790M). In words: Antiproliferative activity on H1975 cells (Alamar Blue). Type of data set: cell-based. As to conditions: for IC50: Homo sapiens, NCI-H1975, H1975 cells; for SI IC50(A549)/IC50(DM): selectivity index, A549 vs H1975 cells. The method, boiled down:
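H1975 cells (15*10^3/well) attached 16-18 h in RPMI-1640 with 2% FBS, then exposed to compounds (≤1% DMSO final) for 72 h at 37 °C. Viability by Alamar Blue fluorescence (Ex 540/Em 590 nm) after 3-5 h; IC50 from four-parameter logistic fit.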
For orientation: Alamar Blue is a resazurin reagent that responds to reducing activity.

[6] abbreviates: average values obtained in several tests, Table 16, read-out: H1975 (DM) IC50.
Where [7] appears, read: antiproliferative test, Table 15, read-out: IC50 H1975 (DM).

As a reminder, the Papp A→B is how fast a substance crosses the layer from the apical side. A lower Papp A→B goes with poor permeation. For orientation: efflux ratio means a quotient of directional permeabilities that is used to spot active efflux. As usually defined, the CC50 is the concentration giving 50% cytotoxicity. By IC50 is commonly meant the concentration at which inhibition is half-maximal. In the case of `C=CC(=O)Nc1cc(Nc2nccc(C(=O)c3ccc(N4CCCC4)cc3)n2)c(OC)cc1N(C)CCN(C)C` [EGFR_3365_63, N-(2-((2-(dimethylamino)ethyl)(methyl)amino)-4-methoxy-5-((4-(4-(pyrrolidin-1-yl)benzoyl)pyrimidin-2-yl)amino)phenyl)acrylamide], in data set [1], the Papp A→B at 2 h, 10 µM turned out to be 4.9 ×10⁻⁶ cm/s and the efflux ratio at 2 h, 10 µM stood at 1. Further, in data set [2], the “Stability in blood plasma, %” value is on record as 100.0%. Moreover, the “TI, CC50/IC50” value in data set [3] is given as 2239. The midpoint of cytotoxicity in data set [4], the CC50 at 72 h, lay at 13000 nM. In data set [5] (setting [6]), the IC50 came out at 2 nM. Further, in data set [5] (setting [7]), the IC50 was found to be 5.79 nM. In addition, the “SI IC50(A549)/IC50(DM)” value in data set [5] was 5383.
Consider `C=CC(=O)Nc1cc(Nc2nccc(C(=O)c3ccc(OCCCC)cc3)n2)c(OC)cc1N(C)CCN(C)C` [EGFR_3365_66, N-(5-((4-(4-butoxybenzoyl)pyrimidin-2-yl)amino)-2-((2-(dimethylamino)ethyl)(methyl)amino)-4-methoxyphenyl)acrylamide], for which, in data set [1], the Papp A→B at 2 h, 10 µM was 1.3 ×10⁻⁶ cm/s and the efflux ratio at 2 h, 10 µM was 0.4. The “Stability in blood plasma, %” value in data set [2] is 97.0%. In addition, the “TI, CC50/IC50” value in data set [3] amounted to 278. The CC50 at 72 h in data set [4] was 9640 nM. Moreover, the IC50 in data set [5] (setting [6]) is 34.7 nM. In addition, the IC50 in data set [5] (setting [7]) is 34.7 nM. Moreover, the “SI IC50(A549)/IC50(DM)” value in data set [5] is 134.
On to `C=CC(=O)Nc1cc(Nc2nccc(C(=O)c3ccc(OCCC)cc3OCCC)n2)c(OC)cc1N(C)CCN(C)C` [EGFR_3365_70, N-(2-((2-(dimethylamino)ethyl)(methyl)amino)-5-((4-(2,4-dipropoxybenzoyl)pyrimidin-2-yl)amino)-4-methoxyphenyl)acrylamide], for which, in data set [1], the Papp A→B at 2 h, 10 µM is 2.5 ×10⁻⁶ cm/s and the efflux ratio at 2 h, 10 µM amounted to 0.4. Also, the “Stability in blood plasma, %” value in data set [2] stood at 90.0%. The “TI, CC50/IC50” value in data set [3] amounted to 56. This compound also registered a 50% cytotoxic concentration (CC50) at 72 h in data set [4] of 11500 nM. Moreover, in data set [5] (setting [6]), the IC50 amounted to 203 nM. Moreover, the IC50 in data set [5] (setting [7]) worked out at 203 nM. Moreover, the “SI IC50(A549)/IC50(DM)” value in data set [5] was 22.
In the case of `C=CC(=O)Nc1cc(Nc2nccc(C(=O)c3ccc(N(CC)CC)cc3)n2)c(OC)cc1N(C)CCN(C)C` [EGFR_3365_72, N-(5-((4-(4-(diethylamino)benzoyl)pyrimidin-2-yl)amino)-2-((2-(dimethylamino)ethyl)(methyl)amino)-4-methoxyphenyl)acrylamide], in data set [1], the Papp A→B at 2 h, 10 µM worked out at 3.5 ×10⁻⁶ cm/s and the efflux ratio at 2 h, 10 µM is 1.5. Also, in data set [2], the “Stability in blood plasma, %” value amounted to 94.6%. The “TI, CC50/IC50” value in data set [3] is reported as 1408. This compound also returned a CC50 at 72 h in data set [4] of 16200 nM. Also, in data set [5] (setting [6]), the IC50 turned out to be 11.5 nM. In addition, in data set [5] (setting [7]), the IC50 amounted to 11.5 nM. In addition, the “SI IC50(A549)/IC50(DM)” value in data set [5] is reported as 932.
As for `C=CC(=O)Nc1cc(Nc2nccc(C(=O)c3ccc(N(C)C)cc3)n2)c(OC)cc1N(C)CCN(C)C` [EGFR_3365_73, N-(5-((4-(4-(dimethylamino)benzoyl)pyrimidin-2-yl)amino)-2-((2-(dimethylamino)ethyl) (methyl)amino)-4-methoxyphenyl)acrylamide], in data set [1], the Papp A→B at 2 h, 10 µM was found to be 5.1 ×10⁻⁶ cm/s and the efflux ratio at 2 h, 10 µM was 1.6. Also, the “Stability in blood plasma, %” value in data set [2] amounted to 90.5%. In addition, in data set [3], the “TI, CC50/IC50” value is given as 3465. Moreover, the CC50 at 72 h in data set [4] is 35600 nM. In addition, in data set [5] (setting [6]), the IC50 was found to be 9.5 nM. Moreover, the IC50 in data set [5] (setting [7]) was determined as 10.3 nM. In addition, the “SI IC50(A549)/IC50(DM)” value in data set [5] came out at 1678.
`C=CC(=O)Nc1cc(Nc2nccc(C(=O)c3ccc(N4CCCCC4)cc3)n2)c(OC)cc1N(C)CCN(C)C` [EGFR_3365_90, N-(2-((2-(dimethylamino)ethyl)(methyl)amino)-4-methoxy-5-((4-(4-(piperidin-1-yl)benzoyl)pyrimidin-2-yl)amino)phenyl)acrylamide]: the Papp A→B at 2 h, 10 µM in data set [1] is 2.2 ×10⁻⁶ cm/s. For the same compound, in data set [1], the efflux ratio at 2 h, 10 µM came to 1.49. Besides, in data set [2], the “Stability in blood plasma, %” value is 98.1%. Besides, the “TI, CC50/IC50” value in data set [3] is 1689. This compound also had a CC50 at 72 h in data set [4] of 12800 nM. Moreover, the figures for the IC50 in data set [5] (setting [6]) and in data set [5] (setting [7]) were 5 nM and 7.58 nM, respectively. Further, the “SI IC50(A549)/IC50(DM)” value in data set [5] came to 1060.
Take `C=CC(=O)Nc1cc(Nc2nccc(C(=O)c3cc4ccccc4n3C)n2)c(OC)cc1N(C)CCN(C)C` [EGFR_3365_94, N-(2-((2-(dimethylamino)ethyl) (methyl)amino)-4-methoxy-5-((4-(1-methyl-1H-indole-2-carbonyl)pyrimidin-2-yl)amino)phenyl)acrylamide]: in data set [1], the Papp A→B at 2 h, 10 µM came out at 6.54 ×10⁻⁶ cm/s and the efflux ratio at 2 h, 10 µM is 0.86. Further, the “Stability in blood plasma, %” value in data set [2] is reported as 83.3%. Moreover, the “TI, CC50/IC50” value in data set [3] came to 1801. The CC50 at 72 h in data set [4] was found to be 12000 nM. Also, the IC50 in data set [5] (setting [6]) was found to be 6.65 nM. Besides, in data set [5] (setting [7]), the IC50 was 6.65 nM. Further, in data set [5], the “SI IC50(A549)/IC50(DM)” value worked out at 1037.
`C=CC(=O)Nc1cc(Nc2nccc(C(=O)c3ccc(OC)cc3OCCC)n2)c(OC)cc1N(C)CCN(C)C` [EGFR_3365_102, N-(2-((2-(dimethylamino)ethyl)(methyl)amino)-4-methoxy-5-((4-(4-methoxy-2-propoxybenzoyl)pyrimidin-2-yl)amino)phenyl)acrylamide]: in data set [1], the Papp A→B at 2 h, 10 µM was determined as 27.5 ×10⁻⁶ cm/s and the efflux ratio at 2 h, 10 µM is 1.62. In data set [2], the “Stability in blood plasma, %” value turned out to be 82.7%. In addition, in data set [3], the “TI, CC50/IC50” value was 342. For the same compound, the CC50 at 72 h in data set [4] was 27500 nM. The IC50 in data set [5] (setting [6]) was determined as 80.5 nM. For the same compound, the IC50 in data set [5] (setting [7]) stood at 80.5 nM. The “SI IC50(A549)/IC50(DM)” value in data set [5] was 69.
Turning to `C=CC(=O)Nc1cc(Nc2nccc(C(=O)c3ccc(N4CCC(N)CC4)cc3)n2)c(OC)cc1N(C)CCN(C)C` [EGFR_3365_121, N-(5-((4-(4-(4-aminopiperidin-1-yl)benzoyl)pyrimidin-2-yl)amino)-2-((2-(dimethylamino)ethyl)(methyl)amino)-4-methoxyphenyl)acrylamide], in data set [1], the Papp A→B at 2 h, 10 µM came out at 1.87 ×10⁻⁶ cm/s and the efflux ratio at 2 h, 10 µM stood at 0.87. In data set [2], the “Stability in blood plasma, %” value amounted to 98.3%. Moreover, the “TI, CC50/IC50” value in data set [3] was determined as 17832. The compound also had a half-maximal cytotoxic concentration (CC50) at 72 h in data set [4] of 75100 nM. The IC50 in data set [5] (setting [6]) amounted to 4.21 nM. The IC50 in data set [5] (setting [7]) was 4.21 nM. Also, in data set [5], the “SI IC50(A549)/IC50(DM)” value stood at 1983.
